Assay results: patent US5739162A, “Carbamoylmethylurea derivatives” (Shionogi & Co., Ltd., priority 1994, dated 1998)
Structures can show the parent of a compound that is named as a salt.

How the values were obtained:
[1] = molecular target: T1, gastrin receptor (Cavia porcellus, UniProt H0VZC5); assay: Gastrin receptor antagonism: displacement of 125I-labeled gastrin from gastric glands; assay type: binding, guinea pig (male Hartley); settings: guinea pig fundic gastric glands; 125I-gastrin 0.2 nM; 30 min, 25° C.
T1 construct: stomach was extracted from each animal immediately, from which gastric glands were prepared; from tissue; host or cells: gastric (fundic) glands of male Hartley guinea pigs
T1 sequence (H0VZC5 1-426): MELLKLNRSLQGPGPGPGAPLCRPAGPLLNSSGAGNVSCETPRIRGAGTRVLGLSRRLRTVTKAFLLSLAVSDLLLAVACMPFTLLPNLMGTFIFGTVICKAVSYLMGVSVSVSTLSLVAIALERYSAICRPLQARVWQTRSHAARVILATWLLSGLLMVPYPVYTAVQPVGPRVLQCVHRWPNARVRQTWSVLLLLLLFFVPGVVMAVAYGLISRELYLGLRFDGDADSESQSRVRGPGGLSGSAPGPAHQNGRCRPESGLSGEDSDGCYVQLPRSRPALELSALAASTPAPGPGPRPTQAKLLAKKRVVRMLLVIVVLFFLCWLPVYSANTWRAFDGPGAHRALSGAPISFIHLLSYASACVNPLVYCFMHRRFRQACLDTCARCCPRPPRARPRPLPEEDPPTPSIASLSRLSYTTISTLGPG
Protocol: (§1) The pharmacological effect of compounds (I) prepared in Examples above were evaluated in vitro with respect to antagonistic activity against gastrin receptor, CCK-B receptor or CCK-A receptor, using fundic gland cells of guinea pig, crude membrane specimen from mouse cerebral cortex, or crude membrane specimen from mouse pancreas, respectively.
(§2) Male Hartley guinea pig (450-600 g) or male ddY mouse (24-30 g) were used.
(1) Gastrin Receptor Antagonism
Preparation of gastric glands
Male Hadley guinea pigs (450-600 g) were killed by bleeding and stomach was extracted from each animal immediately, from which gastric glands were prepared.
Preparation of test compounds and procedures of displacing assay A 1M solution of a compound to be tested in DMSO is prepared and diluted with 50% DMSO to obtain a ten-fold dilution series.
The reaction is initiated by the addition of gastric glands to solutions of different concentration each containing ^125 I-labeled gastrin (final concentration, 0.2 nM). The mixture is incubated for 30 min at 25° C., centrifuged at 2000 rpm for 5 min and the supernatant is removed by aspiration. To the pellet is added ice-cooled incubation buffer and mixed gently, followed by an immediate centrifugation and removal of the supernatant by aspiration. The radioactivity is counted on gamma counter. The same procedure was repeated using 50% DMSO solution or human gastrin I (final concentration, 2 μM) instead of a solution of test compound so as to obtain the control value regarding total binding or the value regarding non-specific binding, respectively.
(§3) The IC50 was determined by plotting the ratio (%) of specific binding of a test compound to that of control on semilogarithmic graph and obtaining the concentration corresponding to 50%, wherein: specific binding of control=total binding (cpm)--non-specific binding (cpm); and specific binding of test compound=total binding (cpm)--non-specific binding (cpm).

[2] = molecular target: T2, CCK-B receptor (Mus musculus, UniProt P56481); assay: CCK-B receptor antagonism: displacement of [3H]CCK-8 from crude membrane of cerebral cortex; assay type: binding, mouse (male ddY); settings: [3H]CCK-8 1 nM, 90 min, 25° C.
T2 construct: crude membrane specimen from mouse cerebral cortex; from tissue; host or cells: cerebral cortex of male ddY mice, crude membranes
T2 sequence (P56481 1-453): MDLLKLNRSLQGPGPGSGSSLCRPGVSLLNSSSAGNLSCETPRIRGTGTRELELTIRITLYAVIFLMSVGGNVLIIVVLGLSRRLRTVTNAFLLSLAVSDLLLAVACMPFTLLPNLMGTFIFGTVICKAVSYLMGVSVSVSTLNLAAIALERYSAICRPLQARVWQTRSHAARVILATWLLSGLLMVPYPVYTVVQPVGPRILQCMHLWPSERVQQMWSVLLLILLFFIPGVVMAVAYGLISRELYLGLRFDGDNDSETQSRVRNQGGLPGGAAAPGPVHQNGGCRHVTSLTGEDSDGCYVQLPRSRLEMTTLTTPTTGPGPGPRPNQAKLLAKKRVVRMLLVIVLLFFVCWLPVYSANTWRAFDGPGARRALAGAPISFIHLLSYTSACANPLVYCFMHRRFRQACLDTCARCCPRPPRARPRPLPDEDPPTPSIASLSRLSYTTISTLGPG
Protocol: as §1, §2
(§4) (2) CCK-A Receptor Antagonism and CCK-B Receptor Antagonism Preparation of CCK receptor preparations Male ddY mice (24 to 30 g) were killed by decapitation and cerebral cortex (CCK-B) and pancreas (CCK-A) were extracted immediately. Each of cerebral cortex and pancreas was mixed with 50 mM Tris-HCl buffer (pH 7.4) and homogenized with a teflon-glass homogenizer and polytron homogenizer to obtain crude membrane specimens.
(§5) Preparation of test compounds and procedures of displacing assay
(§6) A 1M solution of a compound to be tested in DMSO is prepared and diluted with 50% DMSO to obtain a ten-fold dilution series.
(§7) The reaction is initiated by the addition of crude membrane specimen to solutions of different concentration each containing [^3 H]CCk-8 (final concentration, 1 nM). The mixture is incubated for 90 min at 25° C., filtered through glass filter with aspiration and washed with a cooled 50 mM Tris buffer. After the addition of Aquazol-2 cocktail the radioactivity is counted. The same procedure was repeated using 50% DMSO solution or Ceruletide (final concentration, 1 μM) instead of a solution of test compound so as to obtain the control value regarding total binding or the value regarding non-specific binding, respectively.
as §3

[3] = molecular target: T3, CCK-A receptor (Mus musculus, UniProt O08786); assay: CCK-A receptor antagonism: displacement of [3H]CCK-8 from crude membrane of pancreas; assay type: binding, mouse (male ddY); settings: [3H]CCK-8 1 nM, 90 min, 25° C.
T3 construct: crude membrane specimen from mouse pancreas; from tissue; host or cells: pancreas of male ddY mice, crude membranes
T3 sequence (O08786 1-436): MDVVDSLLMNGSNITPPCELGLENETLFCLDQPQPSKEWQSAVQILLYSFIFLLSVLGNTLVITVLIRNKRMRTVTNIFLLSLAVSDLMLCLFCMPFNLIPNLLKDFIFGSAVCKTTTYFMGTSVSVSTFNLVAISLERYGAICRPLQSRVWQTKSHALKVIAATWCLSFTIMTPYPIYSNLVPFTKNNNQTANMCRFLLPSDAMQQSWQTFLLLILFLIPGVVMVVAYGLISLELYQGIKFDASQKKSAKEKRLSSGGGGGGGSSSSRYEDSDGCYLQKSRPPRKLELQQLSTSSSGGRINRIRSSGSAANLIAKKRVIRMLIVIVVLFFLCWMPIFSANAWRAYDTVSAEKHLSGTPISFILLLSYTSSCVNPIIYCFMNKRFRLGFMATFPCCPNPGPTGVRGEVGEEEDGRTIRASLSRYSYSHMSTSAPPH
Protocol: as §1, §2, §4, §5, §6, §7, §3

[4] = test system: gastric acid secretion; assay: Inhibitory effect on pentagastrin-stimulated gastric acid secretion in anesthetized rat (perfused stomach, Schild method); assay type: in vivo, rat (Sprague Dawley); settings: intraduodenal (i.d.), 0.5% M.C. suspension
Text: Anti-acid secreting function of carbamoylmethylurea derivative (I) of the present invention has been confirmed by the in vivo experiment (cf. Schild Method; Experiment 1 below). […] From the results of these experiments, it is apparent that the carbamoylmethylurea derivative (I) has an anti-acid secreting function, and is an excellent gastrin receptor antagonist and/or CCK-B receptor antagonist which has enough functional separativeness from CCK-A receptor.
Experiment 1 In Vivo Test
Evaluation of Inhibitory Effect on Gastric Acid Secretion by Child Method
Twenty four hour starved (ad libitum for water) male Sprague Daily rats (8-week-old) were anesthetized with urethane (1.5 g/kg S.C.) and kept breathing with esophagus cannulas. After laparotomy, esophagus cannulas were inserted orally up to proventriculus and ligated around gastric cardiac. Perfusion cannulas were inserted from duodenum into stomach and ligated around pylorus. Another cannulas were placed into duodenum and ligated for administration of drug. After sutra of abdomen, stomach was perfused via the esophagus cannulas with physiological saline (37° C.) while collecting perfusate for a 15 min interval. The perfusate was subjected to titration with 0.001N NaOH solution to determine the acidity. When the basal acid secretion became stable, pentagastrin ([…])was administered in a sustained manner via common carotid vein for about 90 min until the acid secretion reached approximately the highest level, when a test compound (0.5% M.C. suspension) was administered into duodenum through cannulas. The perfusate was collected for a 15 min interval to monitor the acid secretion for 90 min. The percent inhibition was calculated as follows:
Percent inhibition (%)=100×(A-B)/(C-B)
A: the minimum value of total acidity observed after the administration of a test compound;
B: the total acidity obtained immediately before the administration of pentagastrin; and
C: the total acidity obtained immediately before the administration of a test compound.

| SMILES | IC50 [1] [nM] | IC50 [2] [nM] | IC50 [3] [nM] | ED50 ([4]; Rattus norvegicus) [mg/kg] | ED50 [4] [mg/kg] | Inhibitory Effect on acid secretion in rat ED50, i.d. ([4]; calcium salt) [mg/kg] |
| --- | --- | --- | --- | --- | --- | --- |
| COC(=O)c1cccc(NC(=O)NCC(=O)N(CC(=O)OC(C)(C)C)c2ccccc2C(=O)c2ccccc2)c1 [Compound 9l, 2-(N-(tert-Butoxycarbonylmethyl)-N'-(m-(carbomethoxy)phenyl)ureidomethylcarbonylamino)benzophenone] | 7 | 56 | 1350 | 0.04 | – | – |
| CC(C)(C)NC(=O)CN(C(=O)CNC(=O)Nc1cccc(C(=O)O)c1)c1ccccc1C(=O)c1ccccc1 [Compound 16b, 2-(N-(tert-Butylcarbamoylmethyl)-N'-(m-carboxyphenyl)ureidomethylcarbonylamino)benzophenone] | 6 | 210 | > 10000 | – | – | – |
| Cc1cccc(NC(=O)N[C@@H]2N=C(c3ccccc3)c3ccccc3N(CC(=O)c3ccccc3C)C2=O)c1 [YM-022, reference compound] | 2 | 2 | 100 | – | 0.107 | – |
| CC(C)(C)OC(=O)CN(C(=O)CNC(=O)Nc1cccc(CC(=O)O)c1)c1ccccc1C(=O)c1ccccc1 [Compound 8i, 2-(N-(tert-Butoxycarbonylmethyl)-N'-(m-(carboxymethyl)phenyl)ureidomethylcarbonylamino)benzophenone] | 2 | 3 | 1700 | – | – | – |
| CC(C)(C)OC(=O)CN(C(=O)CNC(=O)Nc1cccc(C(F)(F)F)c1)c1ccccc1C(=O)C1CCCCC1 [Compound 15b, Cyclohexyl-(2-(N-(t-butoxycarbonylmethyl)-N-(N'-(m-trifluoromethylphenyl)ureidomethylcarbonyl)amino)phenyl)ketone] | 5 | 6 | 1150 | 0.026 | – | – |
| CC(C)(C)OC(=O)CN(C(=O)CNC(=O)Nc1cccc(C(=O)O)c1)c1ccccc1C(=O)C1CCCCC1 [Compound 15d, Cyclohexyl-(2-(N-(t-butoxycarbonylmethyl)-N-(N'-(m-carboxyphenyl)ureidomethylcarbonyl)amino)phenyl)ketone] | 3 | 6 | 2000 | – | – | – |
| CC(C)(C)OC(=O)CN(C(=O)CNC(=O)Nc1cccc(-c2nnn(C(c3ccccc3)(c3ccccc3)c3ccccc3)n2)c1)c1ccccc1C(=O)c1ccccc1 [Compound 7f, 2-(N-(tert-Butoxycarbonylmethyl)-N'-(m-(2-(triphenylmethyl)tetrazol-5-yl)phenyl)ureidomethylcarbonylamino)benzophenone] | 1 | 8 | 1650 | – | – | – |
| Cc1ccc(NC(=O)NCC(=O)N(CC(=O)OC(C)(C)C)c2ccccc2C(=O)c2ccccc2)cc1 [Compound 7z, 2-(N-(tert-Butoxycarbonylmethyl)-N'-(p-tolyl)ureidomethylcarbonylamino)benzophenone] | 6 | 66 | 1900 | – | – | – |
| CC(C)(C)OC(=O)CN(C(=O)CNC(=O)Nc1ccc(Cl)cc1)c1ccccc1C(=O)c1ccccc1 [Compound 7y, 2-(N-(tert-Butoxycarbonylmethyl)-N'-(p-chlorophenyl)ureidomethylcarbonylamino)benzophenone] | 42 | 190 | 1800 | – | – | – |
| COC(=O)Cc1cccc(NC(=O)NCC(=O)N(CC(=O)OC(C)(C)C)c2ccccc2C(=O)c2ccccc2)c1 [Compound 9m] | 2 | 11 | 1350 | – | – | – |
| CC(C)(C)OC(=O)CN(C(=O)CNC(=O)Nc1cccc(OCC(=O)O)c1)c1ccccc1C(=O)c1ccccc1 [Compound 8j, 2-(N-(tert-Butoxycarbonylmethyl)-N'-(m-(carboxymethyloxy)phenyl)ureidomethylcarbonylamino)benzophenone] | 3 | 8 | 2200 | – | – | – |
| C=CCOC(=O)c1cccc(NC(=O)NCC(=O)N(CC(=O)NC(C)(C)C)c2ccccc2C(=O)c2ccccc2)c1 [Compound 16a, 2-(N-(tert-Butylcarbamoylmethyl)-N'-(m-(aryloxycarbamoyl)phenyl)ureidomethylcarbonylamino)benzophenone] | 25 | 215 | 4400 | – | – | – |
| CC(C)(C)OC(=O)CN(C(=O)CNC(=O)Nc1cccc(C(=O)O)c1)c1ccccc1C(=O)c1ccccc1 [Compound 8hb, 2-[(tert-Butoxycarbonylmethyl)-[3-(m-(carboxyphenyl)ureidomethylcarbonyl]]aminobenzophenone calcium salt] | 3 | 54 | – | – | – | 0.007 |
